Experimental data from patent publication US20260217708A1, “FUSED BENZAZEPINE DERIVATIVES FOR USE IN THE TREATMENT OF CANCER AND EPILEPSY” (UCB BIOPHARMA SRL, priority 2023, published 2026).

How the values were obtained:
system Xc^− [1] = molecular target: T1, system Xc^− (Homo sapiens, UniProt Q9UPY5); assay: Cystine-induced glutamate release assay; type: cell-based; design: endogenous in cells; host or cells: H4 cells; conditions: H4 cells, sodium-free HEPES buffer, 50 μM L-Cystine, 2 hours, Amplex Red glutamate readout; read-out: pIC50 Cystine-induced glutamate release assay (converted)
T1 sequence (Q9UPY5 1-501): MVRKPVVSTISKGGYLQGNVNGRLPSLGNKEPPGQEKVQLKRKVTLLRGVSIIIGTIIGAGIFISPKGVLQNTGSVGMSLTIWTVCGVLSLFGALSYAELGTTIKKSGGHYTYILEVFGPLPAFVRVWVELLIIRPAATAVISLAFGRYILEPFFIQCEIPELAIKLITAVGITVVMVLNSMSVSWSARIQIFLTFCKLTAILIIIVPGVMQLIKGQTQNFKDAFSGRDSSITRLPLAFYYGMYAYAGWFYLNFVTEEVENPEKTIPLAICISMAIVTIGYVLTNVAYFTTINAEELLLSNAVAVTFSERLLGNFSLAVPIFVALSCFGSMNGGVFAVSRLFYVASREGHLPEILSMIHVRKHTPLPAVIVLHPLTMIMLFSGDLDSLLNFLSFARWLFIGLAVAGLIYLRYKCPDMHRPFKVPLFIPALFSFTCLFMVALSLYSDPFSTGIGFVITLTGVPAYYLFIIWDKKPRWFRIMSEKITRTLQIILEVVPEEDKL
T1 sequence (P08195 1-529 partner): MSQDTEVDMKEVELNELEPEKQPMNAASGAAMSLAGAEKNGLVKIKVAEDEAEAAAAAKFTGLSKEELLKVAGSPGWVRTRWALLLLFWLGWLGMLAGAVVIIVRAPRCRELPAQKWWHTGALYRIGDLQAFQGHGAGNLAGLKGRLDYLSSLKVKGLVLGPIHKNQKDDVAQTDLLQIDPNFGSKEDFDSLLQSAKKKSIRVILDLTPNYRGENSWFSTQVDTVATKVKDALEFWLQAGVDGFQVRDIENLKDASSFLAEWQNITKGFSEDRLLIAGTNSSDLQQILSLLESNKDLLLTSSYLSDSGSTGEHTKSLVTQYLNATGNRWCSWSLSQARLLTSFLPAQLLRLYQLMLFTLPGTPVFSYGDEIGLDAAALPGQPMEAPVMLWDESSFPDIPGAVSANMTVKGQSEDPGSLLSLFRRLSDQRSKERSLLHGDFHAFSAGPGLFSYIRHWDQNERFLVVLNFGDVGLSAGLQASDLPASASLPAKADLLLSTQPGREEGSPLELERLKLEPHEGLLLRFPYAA
How it was run: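 IC50 (reported as pIC50) normalized to DMSO 1% and Erastin 50 μM controls, from Amplex Red fluorescence of glutamate exported into supernatant. H4 cells were washed into sodium-free buffer to exclude EAAT transport, then given compound with 50 μM L-cystine for 2 h in the incubator.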

system Xc^− [2] = molecular target: T1, system Xc^−; assay: [^14C]L-Cystine uptake assay; type: cell-based; design: endogenous in cells; host or cells: H4 cells; conditions: H4 cells, sodium-free HEPES buffer, 0.5 μM L-[14C]Cystine and 4.5 μM L-Cystine, 1 hour at 37° C.; read-out: pIC50 [^14C] L-Cystine uptake assay (converted)
How it was run: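 Compound effect is given as pIC50, taken between controls of 1% DMSO and 50 μM Erastin. Human H4 cells were pretreated 15 min with compound in sodium-free buffer, then took up 0.5 μM [14C]cystine with 4.5 μM cold cystine for 1 hour at 37° C, read by scintillation proximity counting.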

IC50 (system Xc^− [1]) | IC50 (system Xc^− [2]) | Structure (SMILES)
0.1 to 0.501 µM | 0.1 to 0.501 µM | Cc1cc2c(cn1)-c1c(Cl)cccc1CC(=O)N2CC(=O)Nc1ccc(C(F)(F)F)cc1 [#32, 2-(11-chloro-3-methyl-6-oxo-7H-pyrido[4,3-d][3]benzazepin-5-yl)-N-[4-(trifluoro-methyl)phenyl] acetamide]
0.0398 to 0.1 µM | 0.0158 to 0.0398 µM | Cc1cc2c(cn1)-c1cc(F)ccc1CC(=O)N2CC(=O)Nc1ccc(C(F)(F)F)cc1 [#33, 2-(10-fluoro-3-methyl-6-oxo-7H-pyrido[4,3-d][3]benzazepin-5-yl)-N-[4-(trifluoro-methyl)phenyl] acetamide]
0.1 to 0.501 µM | 0.0398 to 0.1 µM | Cc1cc2c(cn1)-c1ccc(F)cc1CC(=O)N2CC(=O)Nc1ccc(C(F)(F)F)cc1 [#34, 2-(9-fluoro-3-methyl-6-oxo-7H-pyrido[4,3-d][3]benzazepin-5-yl)-N-[4-(trifluoro-methyl)phenyl] acetamide]
0.0398 to 0.1 µM | 0.0158 to 0.0398 µM | Cc1cc2c(cn1)-c1cccc(F)c1CC(=O)N2CC(=O)Nc1ccc(C(F)(F)F)cc1 [#35, 2-(8-fluoro-3-methyl-6-oxo-7H-pyrido[4,3-d][3]benzazepin-5-yl)-N-[4-(trifluoro-methyl)phenyl] acetamide]
0.0398 to 0.1 µM | 0.1 to 0.501 µM | Cc1cc2c(cn1)-c1cccnc1CC(=O)N2CC(=O)Nc1ccc(C(F)(F)F)cc1 [#36, 2-(5-methyl-9-oxo-4,8,12-triazatricyclo[9.4.0.0^2,7]pentadeca-1(11),2(7),3,5,12,14-hexaen-8-yl)-N-[4-(trifluoromethyl)phenyl]acetamide]
0.1 to 0.501 µM | 0.1 to 0.501 µM | O=C(CN1C(=O)Cn2nccc2-c2cnc(Cl)cc21)Nc1ccc(C(F)(F)F)cc1 [#37, 2-(12-chloro-8-oxo-5,6,9,13-tetrazatricyclo[8.4.0.0^2,6]tetradeca-1(10),2,4,11,13-pentaen-9-yl)-N-[4-(trifluoromethyl)phenyl]acetamide]
0.1 to 0.501 µM | 0.1 to 0.501 µM | Cc1cc2c(c(F)n1)-c1ncccc1CC(=O)N2CC(=O)Nc1ccc(C(F)(F)F)cc1 [#38, 2-(15-fluoro-13-methyl-9-oxo-3,10,14-triazatricyclo[9.4.0.0^2,7]pentadeca-1(11),2(7),3,5,12,14-hexaen-10-yl)-N-[4-(trifluoromethyl)phenyl]acetamide]
0.0158 to 0.0398 µM | 0.0158 to 0.0398 µM | Cc1cc2c(c(F)n1)-c1ccccc1CC(=O)N2CC(=O)Nc1ccc(C(F)(F)F)cc1 [#39, 2-(1-fluoro-3-methyl-6-oxo-7H-pyrido[4,3-d][3]benzazepin-5-yl)-N-[4-(trifluorometh-yl)phenyl]acetamide]
0.0158 to 0.0398 µM | < 0.0158 µM | Cc1cc2c(c(F)n1)-c1cccnc1CC(=O)N2CC(=O)Nc1ccc(C(F)(F)F)cc1 [#40, 2-(3-fluoro-5-methyl-9-oxo-4,8,12-triaza-tricyclo[9.4.0.0^2,7]pentadeca-1(11),2(7), 3,5,12,14-hexaen-8-yl)-N-[4-(trifluoro-methyl)phenyl]acet-amide]
0.1 to 0.501 µM | 0.1 to 0.501 µM | Cc1cc2c(c(F)n1)-c1ncccc1CC(=O)N2CC(=O)Nc1ccc(Cl)c(F)c1 [#41, N-(4-chloro-3-fluoro-phenyl)-2-(15-fluoro-13-methyl-9-oxo-3,10,14-triazatricyclo [9.4.0.0^2,7]pentadeca-1(11),2(7),3,5,12,14-hexaen-10-yl)acetamide]
0.0398 to 0.1 µM | 0.0398 to 0.1 µM | Cc1cc2c(c(F)n1)-c1sccc1CC(=O)N2CC(=O)Nc1ccc(C(F)(F)F)cc1 [#42, 2-(14-fluoro-12-meth-yl-8-oxo-3-thia-9,13-diazatricyclo[8.4.0.0^2,6]tetradeca-1(10),2(6), 4,11,13-pentaen-9-yl)-N-[4-(trifluorometh-yl)phenyl]acetamide]
0.0398 to 0.1 µM | 0.1 to 0.501 µM | O=C(CN1C(=O)Cc2ncccc2-c2c1cc(F)nc2F)Nc1ccc(C(F)(F)F)cc1 [#43, 2-(3,5-difluoro-9-oxo-4,8,12-triazatricyclo [9.4.0.0^2,7]pentadeca-1(11),2,4,6,12,14-hexaen-8-yl)-N-[4-(trifluoromethyl)phen-yl]acetamide]
0.0398 to 0.1 µM | 0.0398 to 0.1 µM | Cc1cc2c(cn1)-c1ccc(Cl)cc1CC(=O)N2CC(=O)Nc1ccc(C(F)(F)F)cc1 [#44, 2-(9-chloro-3-methyl-6-oxo-7H-pyrido[4,3-d][3]benzazepin-5-yl)-N-[4-(trifluoromethyl)phenyl]acetamide]
0.0398 to 0.1 µM | 0.1 to 0.501 µM | Cc1cncc2c1-c1ccccc1CC(=O)N2CC(=O)Nc1ccc(C(F)(F)F)cc1 [#45, 2-(1-methyl-6-oxo-7H-pyrido[3,4-d][3]benzazepin-5-yl)-N-[4-(trifluoromethyl)phenyl]acetamide]
0.0398 to 0.1 µM | 0.0158 to 0.0398 µM | CN1CCN(c2cc3c(cn2)-c2ccccc2CC(=O)N3CC(=O)Nc2ccc(C(F)(F)F)cc2)CC1=O [#46, 2-[3-(4-methyl-3-oxo-piperazin-1-yl)-6-oxo-7H-pyrido[4,3-d][3]benzazepin-5-yl]-N-[4-(trifluoromethyl)phenyl]acetamide]
0.0398 to 0.1 µM | 0.0158 to 0.0398 µM | O=C(CN1C(=O)Cc2ccccc2-c2cnc(N3CC(F)(F)C3)cc21)Nc1ccc(C(F)(F)F)cc1 [#47, 2-[3-(3,3-difluoroazetidin-1-v)-6-oxo-7H-pyrido[4,3-d][3]benzazepin-5-yl]-N-[4-(trifluoromethyl)phenyl]acetamide]
0.1 to 0.501 µM | 0.1 to 0.501 µM | Cc1cc2c(cn1)-c1ccnn1CC(=O)N2CC(=O)Nc1ccc(C(F)(F)F)cc1 [#48, 2-(12-methyl-8-oxo-5,6,9,13-tetrazatricyclo[8.4.0.0^2,6]tetradeca-1(10),2,4,11,13-pentaen-9-yl)-N-[4-(trifluoromethyl)phenyl]acetamide]
0.0398 to 0.1 µM | < 0.0158 µM | Cc1cc2c(c(Cl)n1)-c1ccccc1CC(=O)N2CC(=O)Nc1ccc(Cl)c(F)c1 [#50, N-(4-chloro-3-fluoro-phenyl)-2-(1-chloro-3-methyl-6-oxo-7H-pyrido[4,3-d][3]benz-azepin-5-yl)acetamide]
0.1 to 0.501 µM | 0.1 to 0.501 µM | O=C(CN1C(=O)Cc2ncccc2-c2c1cc(Cl)c(F)c2Cl)Nc1ccc(C(F)(F)F)cc1 [#52, 2-(9,11-dichloro-10-fluoro-6-oxo-5H-pyrido[2,3-d][1]benz-azepin-7-yl)-N-[4-(trifluoromethyl)phen-yl]acetamide]
0.1 to 0.501 µM | 0.0398 to 0.1 µM | O=C(CN1C(=O)Cc2ncccc2-c2c1ccnc2Cl)Nc1ccc(C(F)(F)F)cc1 [#53, 2-(3-chloro-9-oxo-4,8,12-triazatricyclo [9.4.0.0^2,7]pentadeca-1(11),2(7),3,5,12,14-hexaen-8-yl)-N-[4-(trifluoromethyl)phen-yl]acetamide]
0.1 to 0.501 µM | 0.0398 to 0.1 µM | N#Cc1ccc2c(c1F)-c1cccnc1CC(=O)N2CC(=O)Nc1ccc(C(F)(F)F)cc1 [#54, 2-(10-cyano-11-fluoro-6-oxo-5H-pyrido[2,3-d][1]benzazepin-7-yl)-N-[4-(trifluoromethyl)-phenyl]acetamide]
0.0398 to 0.1 µM | 0.1 to 0.501 µM | Cc1cc2c(c(O)n1)-c1ccccc1CC(=O)N2CC(=O)Nc1ccc(C(F)(F)F)cc1 [#55, 2-(1-hydroxy-3-methyl-6-oxo-7H-pyrido[4,3-d][3]benzazepin-5-yl)-N-[4-(trifluoromethyl)phenyl]acetamide]

Structure (SMILES) | IC50 (system Xc^− [1]) | IC50 (system Xc^− [2])
Cc1cc2c(c(Cl)n1)-c1ccccc1CC(=O)N2CC(=O)Nc1ccc(C(F)(F)F)cc1 [#49, 2-(1-chloro-3-methyl-6-oxo-7H-pyrido[4,3-d][3]benzazepin-5-yl)-N-[4-(trifluoromethyl)phenyl]acetamide] | 0.0158 to 0.0398 µM | < 0.0158 µM
O=C(CN1C(=O)Cc2cc(F)ccc2-c2c1ccnc2Cl)Nc1ccc(C(F)(F)F)cc1 [#51, 2-(1-chloro-9-fluoro-6-oxo-7H-pyrido[4,3-d][3]benzazepin-5-yl)-N-[4-(trifluoromethyl)-phenyl]acetamide] | 0.0398 to 0.1 µM | < 0.0158 µM
